Active and inactive are the calls of the source. The calls are words filed in the database; no cut-off is given here.
Assays:
Assay type in all cases: functional
[1] = test system: BRIN-BD11; test: Protection against dexamethasone-induced cytotoxicity in rat BRIN-BD11 cells assessed as increase in cell viability incubated for 48 hrs by WST-1 reagent based assay; conditions: dose <= 50.0 µM
[2] = test system: BRIN-BD11; test: Protection against dexamethasone-induced cytotoxicity in rat BRIN-BD11 cells assessed as increase in cell viability at 50 uM incubated for 48 hrs by WST-1 reagent based assay
[3] = test system: BRIN-BD11; test: Protection against dexamethasone-induced cell cycle arrest in rat BRIN-BD11 cells assessed as restoration of dexamethasone-induced increase in G1 phase cells at 50 uM incubated for 48 hrs by RNase A staining based FACS analysis
[4] = test system: BRIN-BD11; test: Protection against dexamethasone-induced cell cycle arrest in rat BRIN-BD11 cells assessed as restoration of dexamethasone-induced decrease in S phase cells at 50 uM incubated for 48 hrs by RNase A staining based FACS analysis
[5] = test system: BRIN-BD11; test: Protection against dexamethasone-induced cell cycle arrest in rat BRIN-BD11 cells assessed as restoration of dexamethasone-induced decrease in G2/M phase cells at 50 uM incubated for 48 hrs by RNase A staining based FACS analysis
[6] = test system: BRIN-BD11; test: Protection against dexamethasone-induced cytotoxicity in rat BRIN-BD11 cells assessed as increase in cell viability at 400 uM incubated for 48 hrs by WST-1 reagent based assay

| Structure (SMILES) | Activity [1] | Activity [2] | Activity [3] | Activity [4] | Activity [5] | Activity [6] |
| --- | --- | --- | --- | --- | --- | --- |
| COC(=O)C1=CCC[C@H]2[C@]3(C)C[C@@H](c4ccoc4)OC(=O)C3=CC(O[C@@H]3O[C@H](CO)[C@@H](O)[C@H](O)[C@H]3O)[C@@]12C (some centres not stated) | Active | – | – | – | – | – |
| COC(=O)C1=CCC[C@H]2[C@]3(C)C[C@@H](C4=CC(O)OC4=O)OC(=O)[C@@H]3C[C@@H](O[C@@H]3O[C@H](CO)[C@@H](O)[C@H](O)[C@H]3O)[C@@]12C (some centres not stated) | – | Active | – | – | – | – |
| COC(=O)C1=CCC[C@H]2[C@]3(C)C[C@@H](C4=C[C@H](OC)OC4=O)OC(=O)[C@@H]3CC(O[C@@H]3O[C@H](CO)[C@@H](O)[C@H](O)[C@H]3O)[C@@]12C (some centres not stated) | Active | – | – | – | – | – |
| C[C@@]1(CC(=O)O)[C@@H](C(=O)O)C[C@H]2OC(=O)C3=CCC[C@@H]1[C@]32C | – | inactive | – | – | – | – |
| COC(=O)C1=CCC[C@H]2[C@]3(C)C[C@@H](C4=CC(=O)OC4O)OC(=O)[C@@H]3C[C@@H](O[C@@H]3O[C@H](CO)[C@@H](O)[C@H](O)[C@H]3O)[C@@]12C (some centres not stated) | – | Active | inactive | inactive | inactive | – |
| COC(=O)C1=C[C@H](O)C[C@H]2[C@]3(C)C[C@@H](c4ccoc4)OC(=O)[C@H]3C[C@H](O[C@@H]3O[C@H](CO)[C@@H](O)[C@H](O)[C@H]3O)[C@@]12C | Active | – | – | – | – | – |
| COC(=O)C1=C[C@H](O)C[C@H]2[C@]3(C)C[C@@H](c4ccoc4)OC(=O)[C@@H]3C[C@@H](O[C@@H]3O[C@H](CO)[C@@H](O)[C@H](O)[C@H]3O)[C@@]12C | Active | – | – | – | – | – |
| C[C@]12C[C@@H](c3ccoc3)OC(=O)[C@H]1CC[C@]1(C)[C@H]2[C@H]2C=C[C@]1(O[C@@H]1O[C@H](CO)[C@@H](O)[C@H](O)[C@H]1O)C(=O)O2 | Dose-Dependent Effect | Active | inactive | inactive | inactive | – |
| CCCCNC(=O)NS(=O)(=O)c1ccc(C)cc1 | – | – | – | – | – | Active |
| COC(=O)C1=CCC[C@H]2[C@](C)(C[C@@H](O[C@@H]3O[C@H](CO[C@@H]4O[C@H](CO)[C@@H](O)[C@H](O)[C@H]4O)[C@@H](O)[C@H](O)[C@H]3O)c3ccoc3)[C@H]3C[C@H](OC3=O)[C@@]12C | – | Active | inactive | inactive | inactive | – |
| COC(=O)C1=CCC[C@H]2[C@](C)(C[C@H](O[C@@H]3O[C@H](CO)[C@@H](O)[C@H](O)[C@H]3O)[C@@]3(O)[C@H](OC)O[C@H](OC)[C@H]3O)[C@H]3C[C@H](OC3=O)[C@@]12C | – | inactive | – | – | – | – |
| COC(=O)C1=C[C@H](O)C[C@@H]2[C@@]1(C)[C@@H](O[C@@H]1O[C@H](CO)[C@@H](O)[C@H](O)[C@H]1O)C=C1C(=O)O[C@H](c3ccoc3)C[C@]12C | Dose-Dependent Effect | Active | inactive | inactive | inactive | – |
| COC(=O)C1=C[C@H](O)C[C@H]2[C@](C)(C[C@H](O[C@@H]3O[C@H](CO)[C@@H](O)[C@H](O)[C@H]3O)c3ccoc3)[C@H]3C[C@H](OC3=O)[C@@]12C | Dose-Dependent Effect | Active | inactive | inactive | inactive | – |
| COC(=O)C1=CCC[C@H]2[C@](C)(CC(O[C@@H]3O[C@H](CO)[C@@H](O)[C@H](O)[C@H]3O)c3ccoc3)[C@H]3C[C@H](OC3=O)[C@@]12C (some centres not stated) | Dose-Dependent Effect | Active | inactive | inactive | inactive | – |
| COC(=O)C1=CCC[C@@H]2[C@](C)(CC(O[C@@H]3O[C@H](CO)[C@@H](O)[C@H](O)[C@H]3O)C3=CC(O)OC3=O)[C@H]3C[C@H](OC3=O)[C@]12C (some centres not stated) | Active | – | – | – | – | – |
| C[C@@]12C[C@@H](c3ccoc3)OC(=O)[C@@H]1C[C@@H](O[C@@H]1O[C@H](CO)[C@@H](O)[C@H](O)[C@H]1O)[C@@]13COC(=O)C1=CCC[C@@H]23 | Active | – | – | – | – | – |
| COC(=O)C1=CCC[C@@H]2[C@](C)(CC(O[C@@H]3O[C@H](CO[C@@H]4O[C@H](CO)[C@@H](O)[C@H](O)[C@H]4O)[C@@H](O)[C@H](O)[C@H]3O)C3=CC(OC)OC3=O)[C@H]3C[C@H](OC3=O)[C@]12C (some centres not stated) | – | Active | inactive | inactive | inactive | – |
| COC(=O)C1=CCC[C@H]2[C@]3(C)C[C@@H](c4ccoc4)OC(=O)[C@@H]3C[C@H](O[C@@H]3O[C@H](CO)[C@@H](O)[C@H](O)[C@H]3O)[C@@]12C | Dose-Dependent Effect | – | inactive | inactive | inactive | – |
| C[C@@]12C[C@@H](c3ccoc3)OC(=O)[C@@H]1C[C@@H]1OC(=O)[C@@]3(O)[C@@H](O[C@@H]4O[C@H](CO)[C@@H](O)[C@H](O)[C@H]4O)CC[C@@H]2[C@@]13C | Active | – | – | – | – | – |

Reference: ChEMBL document CHEMBL5325442, “Diterpenoids and Their Glycosides from the Stems of Tinospora crispa with Beta-Cell Protective Activity” (2023)
